Test results: patent US20100144788A1 (priority 2007, published 2010)

Key:
[1] = Hydrate formation when precipitated from water; format: physicochemical
Source text: Crystals used in the present invention may exist as solvates, i.e. crystals wherein solvent molecules form part of the crystal structure. The solvate may be formed from water, in which case the solvates are often referred to as hydrates. Alternatively, the solvates may be formed from other solvents, such as e.g. ethanol, acetone, or ethyl acetate. The exact amount of solvate often depends on the conditions. For instance, hydrates will typically loose water as the temperature is increased or as the relative humidity is decreased.

[2] = Solubility of salts in water with pH of the saturated solution and identity of the precipitate
[3] = tested on: Spontaneously hypertensive rats (SHR); assay: Spontaneously hypertensive rats, animal model of ADHD: operant task with delayed food-reward and circadian activity recording; format: in vivo, rat
Experimental: Core symptoms of ADHD are attention deficit, hyperactivity and increased impulsiveness. Spontaneously hypertensive rats (SHR) were used as animal model for attention deficit hyperactivity disorder (ADHD), Wistar Kyoto rats (the root strain of SHR) served as controls [Biol. Psychiatry. 57, 1239-47, 2005]. To assess these symptoms, an operant task involving a delayed food-reward was used to measure attention- and impulsiveness-related parameters. Attention deficits were measured as increase in the number of lever presses on the wrong side. Impulsiveness was measured as lever presses and reward chamber inspections during the OFF state in test sessions without delayed reward and during the delay interval in the test sessions with delayed rewarding. Hyperactivity was monitored by circadian recording in infra-red cages.
Methods: Operant testing was performed in 20 hours sessions, each in operant behaviour cages with two levers and adjacent reward chambers on the right and left side of the lever panel. The animals had access to food only via lever presses, and fluid was freely available. Training and testing consisted of the following phases:
• (1) Both levers were continuously active (indicated by a signal light). […] The signal light on the correct side indicated the state of the lever (ON or OFF).
• (1) Like Acquisition (3) • (2) Like (1), except that after a lever press of an active lever, the reward was not presented immediately, but after a delay interval of 5 seconds.

[4] = biological target: T1, human alpha1A-7 receptors (Homo sapiens, UniProt P35348); assay: Antagonism of adrenaline evoked release of Ca2+ in CHO cells expressing human alpha1A-7 receptors (FLIPR); format: cell-based; settings: functional assay
T1 construct: expressed in transfected cells; host or cells: CHO cells
T1 sequence (P35348 1-466): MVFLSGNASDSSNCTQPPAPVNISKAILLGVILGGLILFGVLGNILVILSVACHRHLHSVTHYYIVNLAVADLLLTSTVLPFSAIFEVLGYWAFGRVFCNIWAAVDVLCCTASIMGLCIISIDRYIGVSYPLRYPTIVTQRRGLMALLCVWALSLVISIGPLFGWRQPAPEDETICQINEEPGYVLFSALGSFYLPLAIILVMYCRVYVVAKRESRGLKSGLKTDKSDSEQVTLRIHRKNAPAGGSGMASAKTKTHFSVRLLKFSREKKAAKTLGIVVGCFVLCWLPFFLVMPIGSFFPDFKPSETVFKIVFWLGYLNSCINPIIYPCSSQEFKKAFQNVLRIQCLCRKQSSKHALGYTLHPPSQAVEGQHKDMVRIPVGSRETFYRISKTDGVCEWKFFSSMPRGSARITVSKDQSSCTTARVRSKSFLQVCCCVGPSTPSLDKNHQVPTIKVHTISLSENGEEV
Experimental: These experiments were carried out essentially as described below. All cells were cultured in DMEM medium supplemented with 10% BCS, 4 mM L-glutamine (or 2 mM in the case of COS-7), and 100 units/ml penicillin plus 100 μg/ml streptomycin, at 37° C., in 5% CO2. Twenty-four hours prior to assays, CHO cells expressing the human alpha1A-7 receptors were seeded into 384-well black wall microtiter plates coated with poly-D-lysine. […] After excess dye was discarded, cells were washed in assay buffer and layered with a final volume equal to 45 μl/well (or 30 ul/well for antagonist assay). […] Basal fluorescence was monitored in a fluorometric imaging plate reader or FLIPR™ from Molecular Devices (Sunnyvale, Calif.) with an excitation wavelength of 488 nm and an emission range of 500 to 560 nm. Laser excitation energy was adjusted so that basal fluorescence readings were approximately 8,000 relative fluorescent units (RFU). Cells were then stimulated at room temperature with agonists diluted in assay buffer (15 μl), and RFU were measured at 1.5 second intervals over a period of 2.5 min. Maximum change in fluorescence was calculated for each well. Concentration-response curves derived from the maximum change in fluorescence were analyzed by nonlinear regression (Hill equation).

[5] = tested on: extracellular levels of acetylcholine; assay: Microdialysis, extracellular acetylcholine in prefrontal cortex and ventral hippocampus of Sprague-Dawley rats (Example 2G); format: in vivo, rat
Experimental: Male Sprague-Dawley rats, initially weighing 275-300 g, were used. The animals were housed under a 12-hr light/dark cycle under controlled conditions for regular in-door temperature (21±2° C.) and humidity (55±5%) with food and tap water available ad libitum.
Rats were anaesthetised with hypnorm/dormicum (2 ml/kg) and intracerebral guide cannulas (CMA/12) were stereotaxically implanted into the hippocampus, aiming to position the dialysis probe tip in the ventral hippocampus (co-ordinates: 5,6 mm posterior to bregma, lateral −5,0 mm, 7,0 mm ventral to dura or in the frontal cortex (co-ordinates: 3,2 mm anterior to bregma; lateral, 0,8 mm; 4,0 mm ventral to dura). Anchor screws and acrylic cement were used for fixation of the guide cannulas. The body temperature of the animals was monitored by rectal probe and maintained at 37° C. The rats were allowed to recover from surgery for 2 days, housed singly in cages. […]
Concentration of acetylcholine (ACh) in the dialysates was analysed by means of HPLC with electrochemical detection using a mobile phase consisting of 100 mM disodium hydrogenphosphate, 2.0 mM octane sulfonic acid, 0.5 mM tetramethyl-ammonium chloride and 0.005% MB (ESA), pH 8.0. […] The latter was detected electrochemical by using a platinum electrode (Analytical cell: ESA, model 5040). […]

[6] = tested on: extracellular levels of acetylcholine; assay: Microdialysis, extracellular acetylcholine in prefrontal cortex of freely-moving Wistar rats (Example 2F); format: in vivo, rat; settings: s.c.
Experimental: Male Wistar rats (280-350 g; Harlan, Zeist, The Netherlands) were used for the experiments. Rats were individually housed in plastic cages (30×30×40 cm) and had ad libitum access to food and water.
Rats were anesthetized using isoflurane (2%, 400 mL/min N2O, 400 ml/min O2). Lidocain (10% m/v) was used for local anesthesia. Each animal was placed into a stereotaxic frame (Kopf instruments, USA), and home-made I-shaped probes (Hospal AN 69 membrane, 4 mm exposed surface) were inserted into the medial prefrontal cortex (mPFC) using the rat brain atlas of Paxinos and Watson (1982). Coordinates for the tip of the probe was mPFC [AP=3.4 mm, L=−0.8 mm, V=5.0 mm]. The probe was then fixed to the skull with dental cement and a srew. Flunixin (1 mg/kg s.c.) was administered as post-operative analgesic.
Experiments were carried out 24-48 hours after surgery. […] Samples were collected by an automated fraction collector (CMA 142), and stored at −80° C. until analyzed. […]
Concentrations of acetylcholine were determined by HPLC with tandem mass spectrometry (MS/MS) detection. […]
The LC/MS analyses were performed using a API 4000 MS/MS system consisting of a API 4000 MS/MS detector and a Turbo Ion Spray interface (both from Applied Biosystems, the Netherlands). […] Data were calibrated and quantitated using the Analyst™ data system (Applied Biosystem, version 1.2). […]

[7] = biological target: T2, NET (Rattus norvegicus, UniProt Q9WTR4); assay: Norepinephrine (NE) reuptake inhibition, rat cortical synaptosomes, [3H]NE; format: biochemical; settings: [3H]NE 10 nM
T2 construct: rat cortical synaptosome preparation; from tissue; host or cells: rat cortical synaptosomes
T2 sequence (Q9WTR4 1-597): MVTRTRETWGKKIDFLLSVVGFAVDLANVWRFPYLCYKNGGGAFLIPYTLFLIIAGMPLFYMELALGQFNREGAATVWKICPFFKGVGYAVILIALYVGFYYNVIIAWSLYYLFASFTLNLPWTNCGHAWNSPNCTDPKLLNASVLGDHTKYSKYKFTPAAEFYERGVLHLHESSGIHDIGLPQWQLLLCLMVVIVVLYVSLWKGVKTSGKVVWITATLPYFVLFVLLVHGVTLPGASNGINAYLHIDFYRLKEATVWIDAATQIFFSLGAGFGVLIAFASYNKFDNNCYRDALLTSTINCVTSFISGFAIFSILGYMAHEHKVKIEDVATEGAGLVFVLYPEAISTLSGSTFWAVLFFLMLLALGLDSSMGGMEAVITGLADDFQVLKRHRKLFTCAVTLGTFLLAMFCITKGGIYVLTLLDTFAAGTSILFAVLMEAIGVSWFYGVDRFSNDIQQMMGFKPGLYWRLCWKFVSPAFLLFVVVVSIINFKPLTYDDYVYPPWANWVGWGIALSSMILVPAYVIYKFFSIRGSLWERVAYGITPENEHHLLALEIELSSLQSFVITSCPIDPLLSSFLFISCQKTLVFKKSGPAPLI
Experimental: Non-specific uptake was determined in the presence of 10 μM talsupram or citalopram and the total uptake was determined in the presence of buffer. Aliquots were incubated for 15 minutes at 37° C. […] Filters were washed and counted in a Wallac MicroBeta counter.

[8] = SHR, methylphenidate 2 and 5 mg/kg i.p. intermittent, ~10 mg/kg/day chronic via drinking water
[9] = SHR rats, 5 and 10 mg/kg i.p., injected 30 min before testing

Cc1ccc(Sc2ccccc2C2CCNCC2)cc1
formation of hydrates [1]: do

O=C(O)CCCC(=O)O [Glutaric acid, 1,5-pentanedioic acid 1:1]
Resulting pH ([2]; pH in the saturated solution of the salt in water): 4.6 | Precipitate ([2]; whether precipitate isolated after the solubility determination is identical to the compound dissolved, indicative of hydrate formation): =start

Br.Cc1ccc(Sc2ccccc2C2CCNCC2)cc1 [HBr, 4-(2-p-Tolylsulfanyl-phenyl)-piperidine hydrobromide]
formation of hydrates [1]: does not form hydrates

COC(=O)C(c1ccccc1)C1CCCCN1 (centres unmarked) [Methylphenidate, reference compound]
attention deficit [3, 8]: no reduction | impulsiveness [3, 8]: no reduction | time course of activity ([3]; chronic administration via drinking water, ~10 mg/kg/day): did not alter | hyperactivity of SHR ([3]; intermittent administration, 2 and 5 mg/kg i.p., effect lasted a few hours): markedly and dose-dependently aggravated

O=C(O)CCC(=O)O [Succinic acid, 1,4-butanedioic acid, 2:1]
formation of hydrates [1]: do

Cc1ccc(Sc2ccccc2C2CCNCC2)cc1 [compound I, 4-[2-(4-methylphenylsulfanyl)-phenyl]piperidine]
adrenaline evoked release of Ca2+ from intracellular stores [4]: antagonises | extracellular level of acetylcholine [5]: increase | extracellular level of acetylcholine [6]: increase | IC50 [7]: 23 nM | acquisition of the task or general motivation of food seeking ([3]; SHR rats, 5 and 10 mg/kg i.p.): did not affect | attention deficits [3, 9]: reduced | impulsiveness [3, 9]: reduced | hyperactivity - locomotor activity ([3]; SHR rats, 5 and 10 mg/kg i.p., circadian activity monitoring, for 1 hour without prolonged effects): dose-dependently depressed
